# Legend:
# MV-4-11 cells = test: CCK-8 cell viability assay in MV-4-11 cells; type: cell-based; details: Homo sapiens, MV4-11, 72 h, 10% FBS, 3 days
# Experimental: MV-4-11 cells were obtained from University of Michigan. Cells were maintained in the RPMI-1640 medium with 10% FBS and 1% P/S at 37° C. and an atmosphere of 5% CO2.
# • The effect of representative Compounds of the Disclosure on cell viability was determined using Cell Counting Kit-8 (CCK-8) assay (Shanghai Life iLab Biotech) according to the manufacturer's instructions. Each tested compound was serially diluted in culture medium, and 100 μL of the compound dilution was added to the corresponding well of the cell plate. 100 μL of MV-4-11 cell suspension (20000 cells/well) in culture medium were seeded into 96-well plates. The cells were incubated at 37° C. in an atmosphere of 5% CO2 for 3 days. At the end of 3 days, 20 μL of CCK-8 solution was added to each well of the plate and incubated for 1-4 hours. The plates were read at 450 nm on the Biotek plate reader. The readings were normalized to the vehicle cells, and the IC50 was calculated using GraphPad Prism 8 software.
# RS4; 11Bcl-2-G101V cells = test: CellTiter-Glo (CTG) cell viability assay in RS4;11-Bcl-2-G101V cells; type: cell-based; details: 72 h, 10% FBS, 3 days
# Experimental: RS4; 11Bcl-2-G101V, RS4; 11Bcl-2-D103E, RS4; 11Bcl-2-V156D and RS4; 11Bcl-2-G101V-D103E cells were obtained from Cobioer Biosciences. Cells were maintained in the RPMI-1640 medium with 10% FBS, 1% P/S and puromycin (1 μg/mL) at 37° C. and an atmosphere of 5% CO2.
# • The effect of representative Compounds of the Disclosure on cell viability was determined using CellTiter-Glo® (CTG) luminescent cell viability assay (Promega, USA) according to the manufacturer's instructions. 95 μL of cell suspension (10000 cells/well) in culture medium were seeded into 96-well plates and cultured 4 hours. Each tested compound was serially diluted in blank culture medium, and 5 μL of the compound dilution was added to the corresponding well of the cell plate. After the addition of the tested compound, the cells were incubated at 37° C. in an atmosphere of 5% CO2 for 3 days. At the end of 3 days, 30 μL of CTG solution was added to each well of the plate and mix contents for 2 minutes on an orbital shaker. Allow the plate to incubate at room temperature for 15 mins to stabilize signal and record RLU on the Biotek plate reader. The readings were normalized to the vehicle cells, and the IC50 was calculated using GraphPad Prism 8 software.
Structure (SMILES),IC50 (MV-4-11 cells) [nM],IC50 (RS4; 11Bcl-2-G101V cells) [nM]
"Cc1ccsc1C1=C(CN2CCN(c3ccc(C(=O)NS(=O)(=O)c4ccc(NCC5CCOCC5)c([N+](=O)[O-])c4)c(Oc4cnc5[nH]ccc5c4)c3)CC2)CCC(C)(C)C1 [Example 4, 2-((1H-pyrrolo[2,3-b]pyridin-5-yl)oxy)-4-(4-((4,4-dimethyl-2-(3-methylthiophen-2-yl)cyclohex-1-en-1-yl)methyl)piperazin-1-yl)-N-((3-nitro-4-(((tetrahydro-2H-pyran-4-yl)methyl)amino)phenyl)sulfonyl)benzamide]",54,3250
"Cc1csc(C2=C(CN3CCN(c4ccc(C(=O)NS(=O)(=O)c5ccc(NCC6CCOCC6)c([N+](=O)[O-])c5)c(Oc5cnc6[nH]ccc6c5)c4)CC3)CCC(C)(C)C2)c1 [Example 5, 2-((1H-pyrrolo[2,3-b]pyridin-5-yl)oxy)-4-(4-((4,4-dimethyl-2-(4-methylthiophen-2-yl)cyclohex-1-en-1-yl)methyl)piperazin-1-yl)-N-((3-nitro-4-(((tetrahydro-2H-pyran-4-yl)methyl)amino)phenyl)sulfonyl)benzamide]",79,3820
"CC(C)c1cscc1C1=C(CN2CCN(c3ccc(C(=O)NS(=O)(=O)c4ccc(NCC5CCOCC5)c([N+](=O)[O-])c4)c(Oc4cnc5[nH]ccc5c4)c3)CC2)CCC(C)(C)C1 [Example 7, 2-((1H-pyrrolo[2,3-b]pyridin-5-yl)oxy)-4-(4-((2-(4-isopropylthiophen-3-yl)-4,4-dimethylcyclohex-1-en-1-yl)methyl)piperazin-1-yl)-N-((3-nitro-4-(((tetrahydro-2H-pyran-4-yl)methyl)amino)phenyl)sulfonyl)benzamide]",209,4270
"CC(C)c1cscc1C1=C(CN2CCN(c3ccc(C(=O)NS(=O)(=O)c4ccc(NC[C@H]5COCCO5)c([N+](=O)[O-])c4)c(Oc4cnc5[nH]ccc5c4)c3)CC2)CCC(C)(C)C1 [Example 9, (S)—N-((4-(((1,4-dioxan-2-yl)methyl)amino)-3-nitrophenyl)sulfonyl)-2-((1H-pyrrolo[2,3-b]pyridin-5-yl)oxy)-4-(4-((2-(4-isopropylthiophen-3-yl)-4,4-dimethylcyclohex-1-en-1-yl)methyl)piperazin-1-yl)benzamide]",167,5420
"CC(C)c1ccc(C2=C(CN3CCN(c4ccc(C(=O)NS(=O)(=O)c5ccc(NCC6CCOCC6)c([N+](=O)[O-])c5)c(Oc5cnc6[nH]ccc6c5)c4)CC3)CCC(C)(C)C2)s1 [Example 12, 2-((1H-pyrrolo[2,3-b]pyridin-5-yl)oxy)-4-(4-((2-(5-isopropylthiophen-2-yl)-4,4-dimethylcyclohex-1-en-1-yl)methyl)piperazin-1-yl)-N-((3-nitro-4-(((tetrahydro-2H-pyran-4-yl)methyl)amino)phenyl)sulfonyl)benzamide]",164,4030
"CC(C)c1sccc1C1=C(CN2CCN(c3ccc(C(=O)NS(=O)(=O)c4ccc(NC[C@H]5COCCO5)c([N+](=O)[O-])c4)c(Oc4cnc5[nH]ccc5c4)c3)CC2)CCC(C)(C)C1 [Example 13, (S)—N-((4-(((1,4-dioxan-2-yl)methyl)amino)-3-nitrophenyl)sulfonyl)-2-((1H-pyrrolo[2,3-b]pyridin-5-yl)oxy)-4-(4-((2-(2-isopropylthiophen-3-yl)-4,4-dimethylcyclohex-1-en-1-yl)methyl)piperazin-1-yl)benzamide]",25,1790
"CC(C)c1ccc(C2=C(CN3CCN(c4ccc(C(=O)NS(=O)(=O)c5ccc(NC[C@H]6COCCO6)c([N+](=O)[O-])c5)c(Oc5cnc6[nH]ccc6c5)c4)CC3)CCC(C)(C)C2)s1 [Example 14, (S)—N-((4-(((1,4-dioxan-2-yl)methyl)amino)-3-nitrophenyl)sulfonyl)-2-((1H-pyrrolo[2,3-b]pyridin-5-yl)oxy)-4-(4-((2-(5-isopropylthiophen-2-yl)-4,4-dimethylcyclohex-1-en-1-yl)methyl)piperazin-1-yl)benzamide]",98,2660
"CC1(C)CCC(CN2CCN(c3ccc(C(=O)NS(=O)(=O)c4ccc(NC[C@H]5COCCO5)c([N+](=O)[O-])c4)c(Oc4cnc5[nH]ccc5c4)c3)CC2)=C(c2cc(Nc3ccc(F)cc3F)cs2)C1 [Example 20, (S)—N-((4-(((1,4-dioxan-2-yl)methyl)amino)-3-nitrophenyl)sulfonyl)-2-((1H-pyrrolo[2,3-b]pyridin-5-yl)oxy)-4-(4-((2-(4-((2,4-difluorophenyl)amino)thiophen-2-yl)-4,4-dimethylcyclohex-1-en-1-yl)methyl)piperazin-1-yl)benzamide]",> 1000,> 10000
CC1(C)CCC(CN2CCN(c3ccc(C(=O)NS(=O)(=O)c4ccc(NC[C@H]5COCCO5)c([N+](=O)[O-])c4)c(Oc4cnc5[nH]ccc5c4)c3)CC2)=C(c2cc(CN3CC4(C3)CN(S(C)(=O)=O)C4)cs2)C1 [Example 27],126,1040
"CC1(C)CCC(CN2CCN(c3ccc(C(=O)NS(=O)(=O)c4ccc(NC[C@H]5CC[C@](C)(O)CC5)c([N+](=O)[O-])c4)c(Oc4cnc5[nH]ccc5c4)c3)CC2)=C(c2cc(-c3c(F)cc(F)cc3F)cs2)C1 [Example 47, 2-((1H-pyrrolo[2,3-b]pyridin-5-yl)oxy)-4-(4-((4,4-dimethyl-2-(4-(2,4,6-trifluorophenyl)thiophen-2-yl)cyclohex-1-en-1-yl)methyl)piperazin-1-yl)-N-((4-((((1r,4r)-4-hydroxy-4-methylcyclohexyl)methyl)amino)-3-nitrophenyl)sulfonyl)benzamide]",5,190
"CC1(C)CCC(CN2CCN(c3ccc(C(=O)NS(=O)(=O)c4ccc(NC[C@H]5COCCO5)c([N+](=O)[O-])c4)c(Oc4cnc5[nH]ccc5c4)c3)CC2)=C(c2cc(-c3ccc(F)cn3)cs2)C1 [Example 52, (S)—N-((4-(((1,4-dioxan-2-yl)methyl)amino)-3-nitrophenyl)sulfonyl)-2-((1H-pyrrolo[2,3-b]pyridin-5-yl)oxy)-4-(4-((2-(4-(5-fluoropyridin-2-yl)thiophen-2-yl)-4,4-dimethylcyclohex-1-en-1-yl)methyl)piperazin-1-yl)benzamide]",296,4990
"CC1(C)CCC(CN2CCN(c3ccc(C(=O)NS(=O)(=O)c4ccc(NC[C@H]5COCCO5)c([N+](=O)[O-])c4)c(Oc4cnc5[nH]ccc5c4)c3)CC2)=C(c2cc(-c3c(F)cc(F)c4cc[nH]c34)cs2)C1 [Example 57, (S)—N-((4-(((1,4-dioxan-2-yl)methyl)amino)-3-nitrophenyl)sulfonyl)-2-((1H-pyrrolo[2,3-b]pyridin-5-yl)oxy)-4-(4-((2-(4-(4,6-difluoro-1H-indol-7-yl)thiophen-2-yl)-4,4-dimethylcyclohex-1-en-1-yl)methyl)piperazin-1-yl)benzamide]",1210,5810
"CC1(C)CCC(CN2CCN(c3ccc(C(=O)NS(=O)(=O)c4ccc(NC[C@H]5CC[C@](C)(O)CC5)c([N+](=O)[O-])c4)c(Oc4cnc5[nH]ccc5c4)c3)CC2)=C(c2cc(C#Cc3ccc(F)cc3)cs2)C1 [Example 61, 2-((1H-pyrrolo[2,3-b]pyridin-5-yl)oxy)-4-(4-((2-(4-((4-fluorophenyl)ethynyl)thiophen-2-yl)-4,4-dimethylcyclohex-1-en-1-yl)methyl)piperazin-1-yl)-N-((4-((((1r,4r)-4-hydroxy-4-methylcyclohexyl)methyl)amino)-3-nitrophenyl)sulfonyl)benzamide]",107,3180

# Reference: patent US12577245B2, “Sulfonyl benzamide derivatives as Bcl-2 inhibitors” (ASCENTAGE PHARMA (SUZHOU) CO., LTD., priority 2021, dated 2026)
